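Cells were grown in 96-well plates and exposed to each compound for 48 hours at five concentrations; endpoints were interpolated linearly between bracketing concentrations, or set to the highest concentration if not reached. The concentration for 50% growth inhibition is given as GI50. At the TGI there is no net growth.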
Columns and labels:
Test in all cases: DTP human tumour cell line panel, 48 h
MDA-MB-231 breast = test system: MDA-MB-231 breast
SK-MEL-2 melanoma = test system: SK-MEL-2 melanoma
TK-10 renal = test system: TK-10 renal
SNB-75 CNS = test system: SNB-75 CNS
A498 renal = test system: A498 renal
NCI/ADR-RES ovarian = test system: NCI/ADR-RES ovarian
RXF 393 renal = test system: RXF 393 renal
NCI-H522 lung = test system: NCI-H522 lung
OVCAR-4 ovarian = test system: OVCAR-4 ovarian
OVCAR-3 ovarian = test system: OVCAR-3 ovarian
MDA-MB-435 = test system: MDA-MB-435
OVCAR-5 ovarian = test system: OVCAR-5 ovarian
HCT-15 colon = test system: HCT-15 colon
MOLT-4 leukemia = test system: MOLT-4 leukemia
COLO 205 colon = test system: COLO 205 colon
SR leukemia = test system: SR leukemia
HCT-116 colon = test system: HCT-116 colon
UO-31 renal = test system: UO-31 renal
A549 NSCLC = test system: A549 NSCLC
HOP-92 NSCLC = test system: HOP-92 NSCLC
MALME-3M melanoma = test system: MALME-3M melanoma
U251 CNS = test system: U251 CNS
KM12 colon = test system: KM12 colon
BT-549 breast = test system: BT-549 breast
UACC-257 melanoma = test system: UACC-257 melanoma
SF-268 CNS = test system: SF-268 CNS
T-47D breast = test system: T-47D breast
CCRF-CEM leukemia = test system: CCRF-CEM leukemia
OVCAR-8 ovarian = test system: OVCAR-8 ovarian
CAKI-1 renal = test system: CAKI-1 renal
HT29 colon = test system: HT29 colon
IGROV1 ovarian = test system: IGROV1 ovarian
SF-295 CNS = test system: SF-295 CNS
HS 578T breast = test system: HS 578T breast
HL-60(TB) leukemia = test system: HL-60(TB) leukemia
SK-OV-3 ovarian = test system: SK-OV-3 ovarian
HCC-2998 colon = test system: HCC-2998 colon
HOP-62 NSCLC = test system: HOP-62 NSCLC
SK-MEL-5 melanoma = test system: SK-MEL-5 melanoma
SK-MEL-28 melanoma = test system: SK-MEL-28 melanoma
NCI-H226 lung = test system: NCI-H226 lung
SW-620 colon = test system: SW-620 colon
SN12C renal = test system: SN12C renal
LOX IMVI melanoma = test system: LOX IMVI melanoma
DU-145 prostate = test system: DU-145 prostate
K-562 leukemia = test system: K-562 leukemia
ACHN renal = test system: ACHN renal
786-0 renal = test system: 786-0 renal
MCF7 breast = test system: MCF7 breast
SF-539 CNS = test system: SF-539 CNS
M14 melanoma = test system: M14 melanoma
SNB-19 CNS = test system: SNB-19 CNS
NCI-H460 lung = test system: NCI-H460 lung
RPMI-8226 leukemia = test system: RPMI-8226 leukemia

Compound `CC#Cc1nc2ccccc2c(=O)[nH]1` has a GI50 (MDA-MB-231 breast) of 2.1 µM, a TGI (MDA-MB-231 breast) of 4.71 µM and a GI50 (SK-MEL-2 melanoma) of 3.2 µM. For the same compound, the TGI (SK-MEL-2 melanoma) was 7.21 µM, the GI50 (TK-10 renal) was 5.06 µM and the TGI (TK-10 renal) was 26.3 µM. The GI50 (SNB-75 CNS) was 2.09 µM, the TGI (SNB-75 CNS) was 6.43 µM and the GI50 (A498 renal) was 1.38 µM. For the same compound, the TGI (A498 renal) was 2.74 µM, the GI50 (NCI/ADR-RES ovarian) was 3.89 µM and the TGI (NCI/ADR-RES ovarian) was 63.9 µM. For the same compound, the GI50 (RXF 393 renal) was 1.57 µM, the TGI (RXF 393 renal) was 3.27 µM and the GI50 (NCI-H522 lung) was 5.27 µM. For the same compound, the TGI (NCI-H522 lung) was 16.7 µM, the GI50 (OVCAR-4 ovarian) was 4.15 µM and the TGI (OVCAR-4 ovarian) was 27.5 µM. For the same compound, the GI50 (OVCAR-3 ovarian) was 2.11 µM, the TGI (OVCAR-3 ovarian) was 4.16 µM and the GI50 (MDA-MB-435) was 2.04 µM. It also gave a TGI (MDA-MB-435) of 5.35 µM, a GI50 (OVCAR-5 ovarian) of 6.1 µM and a TGI (OVCAR-5 ovarian) of 27.1 µM. The GI50 (HCT-15 colon) was 2.73 µM, the TGI (HCT-15 colon) was 8.91 µM and the GI50 (MOLT-4 leukemia) was 2.9 µM. The TGI (MOLT-4 leukemia) was 8.51 µM, the GI50 (COLO 205 colon) was 2.03 µM and the TGI (COLO 205 colon) was 3.7 µM. The GI50 (SR leukemia) was 2.38 µM, the TGI (SR leukemia) was 19 µM and the GI50 (HCT-116 colon) was 3.24 µM. It also gave a TGI (HCT-116 colon) of 13 µM, a GI50 (UO-31 renal) of 3.18 µM and a TGI (UO-31 renal) of 8.87 µM. For the same compound, the GI50 (A549 NSCLC) was 4.9 µM, the TGI (A549 NSCLC) was 34.2 µM and the GI50 (HOP-92 NSCLC) was 2.3 µM. For the same compound, the TGI (HOP-92 NSCLC) was 7.74 µM, the GI50 (MALME-3M melanoma) was 4.21 µM and the TGI (MALME-3M melanoma) was 15 µM. The GI50 (U251 CNS) was 3.42 µM, the TGI (U251 CNS) was 12.8 µM and the GI50 (KM12 colon) was 2.68 µM. It also gave a TGI (KM12 colon) of 6.58 µM, a GI50 (BT-549 breast) of 2.34 µM and a TGI (BT-549 breast) of 5.18 µM. For the same compound, the GI50 (UACC-257 melanoma) was 3.4 µM, the TGI (UACC-257 melanoma) was 15.4 µM and the GI50 (SF-268 CNS) was 3.17 µM. It also gave a TGI (SF-268 CNS) of 11.1 µM, a GI50 (T-47D breast) of 5.71 µM and a TGI (T-47D breast) of 23 µM. It also gave a GI50 (CCRF-CEM leukemia) of 2.62 µM, a TGI (CCRF-CEM leukemia) of 25.4 µM and a GI50 (OVCAR-8 ovarian) of 4.89 µM. The TGI (OVCAR-8 ovarian) was 64.9 µM, the GI50 (CAKI-1 renal) was 6.15 µM and the TGI (CAKI-1 renal) was 28.3 µM. The GI50 (HT29 colon) was 3.79 µM, the TGI (HT29 colon) was 13.9 µM and the GI50 (IGROV1 ovarian) was 2.51 µM. The TGI (IGROV1 ovarian) was 6.97 µM, the GI50 (SF-295 CNS) was 4.1 µM and the TGI (SF-295 CNS) was 20.6 µM. It also gave a GI50 (HS 578T breast) of 4.92 µM, a TGI (HS 578T breast) greater than 100 µM and a GI50 (HL-60(TB) leukemia) of 3.11 µM. It also gave a TGI (HL-60(TB) leukemia) of 9.62 µM, a GI50 (SK-OV-3 ovarian) of 41.7 µM and a TGI (SK-OV-3 ovarian) greater than 100 µM. For the same compound, the GI50 (HCC-2998 colon) was 1.99 µM, the TGI (HCC-2998 colon) was 4.17 µM and the GI50 (HOP-62 NSCLC) was 3.18 µM. It also gave a TGI (HOP-62 NSCLC) of 9.43 µM, a GI50 (SK-MEL-5 melanoma) of 1.65 µM and a TGI (SK-MEL-5 melanoma) of 3.32 µM. For the same compound, the GI50 (SK-MEL-28 melanoma) was 4.55 µM, the TGI (SK-MEL-28 melanoma) was 33.9 µM and the GI50 (NCI-H226 lung) was 2.3 µM. For the same compound, the TGI (NCI-H226 lung) was 5.84 µM, the GI50 (SW-620 colon) was 3.7 µM and the TGI (SW-620 colon) was 23 µM. It also gave a GI50 (SN12C renal) of 3.02 µM, a TGI (SN12C renal) of 9.8 µM and a GI50 (LOX IMVI melanoma) of 1.82 µM. It also gave a TGI (LOX IMVI melanoma) of 3.43 µM, a GI50 (DU-145 prostate) of 4.88 µM and a TGI (DU-145 prostate) greater than 100 µM. It also gave a GI50 (K-562 leukemia) of 3.93 µM, a TGI (K-562 leukemia) greater than 100 µM and a GI50 (ACHN renal) of 3.65 µM. For the same compound, the TGI (ACHN renal) was 23.3 µM, the GI50 (786-0 renal) was 4.23 µM and the TGI (786-0 renal) was 14.7 µM. For the same compound, the GI50 (MCF7 breast) was 3.07 µM, the TGI (MCF7 breast) was greater than 100 µM and the GI50 (SF-539 CNS) was 2.76 µM. It also gave a TGI (SF-539 CNS) of 9.14 µM, a GI50 (M14 melanoma) of 3.28 µM and a TGI (M14 melanoma) of 9.71 µM. The GI50 (SNB-19 CNS) was 13.3 µM, the TGI (SNB-19 CNS) was 52.3 µM and the GI50 (NCI-H460 lung) was 3.89 µM. It also gave a TGI (NCI-H460 lung) of 20.2 µM, a GI50 (RPMI-8226 leukemia) of 1.52 µM and a TGI (RPMI-8226 leukemia) of 5.73 µM.
